Source: PubChem BioAssay AID2202555 (NIEHS Division of Translational Toxicology (DTT))
Results filed as inconclusive are left out. Calls of active or inactive are those of the source. How the calls were made is not given here.

Tested on: rat and mouse 2-year carcinogenicity bioassay, tumor evidence
Assay: Consolidated carcinogenicity assay summary data
From the text: Cancer Evaluation Criteria
The National Toxicology Program describes the results of individual experiments on a chemical agent and notes the strength of the evidence for conclusions regarding each study. […] Other organizations, such as the International Agency for Research on Cancer, assign a strength of evidence for conclusions based on an examination of all available evidence, including animal studies such as those conducted by the NTP, epidemiologic studies, and estimates of exposure. Thus, the actual determination of risk to humans from chemicals found to be carcinogenic in laboratory animals requires a wider analysis that extends beyond the purview of these studies.
Five categories of evidence of carcinogenic activity are used in the Technical Report series to summarize the strength of evidence observed in each experiment: two categories for positive results (clear evidence and some evidence); one category for uncertain findings (equivocal evidence); one category for no observable effects (no evidence); and one category for experiments that cannot be evaluated because of major flaws (inadequate study). These categories of interpretative conclusions were first adopted in June 1983 and then revised on March 1986 for use in the Technical Report series to incorporate more specifically the concept of actual weight of evidence of carcinogenic activity. For each separate experiment (male rats, female rats, male mice, female mice), one of the following five categories is selected to describe the findings. These categories refer to the strength of the experimental evidence and not to potency or mechanism.
For studies showing multiple chemical-related neoplastic effects that if considered individually would be assigned to different levels of evidence categories, the following convention has been adopted to convey completely the study results. In a study with clear evidence of carcinogenic activity at some tissue sites, other responses that alone might be deemed some evidence are indicated as "were also related" to chemical exposure. In studies with clear or some evidence of carcinogenic activity, other responses that alone might be termed equivocal evidence are indicated as "may have been" related to chemical exposure.
When a conclusion statement for a particular experiment is selected, consideration must be given to key factors that would extend the actual boundary of an individual category of evidence. Such consideration should allow for incorporation of scientific experience and current understanding of long-term carcinogenesis studies in laboratory animals, especially for those evaluations that may be on the borderline between two adjacent levels. These considerations should include:
- adequacy of the experimental design and conduct;
- occurrence of common versus uncommon neoplasia;
- progression (or lack thereof) from benign to malignant neoplasia as well as from preneoplastic to neoplastic lesions;
- some benign neoplasms have the capacity to regress but others (of the same morphologic type) progress. At present, it is impossible to identify the difference. Therefore, where progression is known to be a possibility, the most prudent course is to assume that benign neoplasms of those types have the potential to become malignant;
- combining benign and malignant tumor incidences known or thought to represent stages of progression in the same organ or tissue;
- latency in tumor induction;
- multiplicity in site -specific neoplasia;
- supporting information from proliferative lesions (hyperplasia) in the same site of neoplasia or in other experiments (same lesion in another sex or species);
- presence or absence of dose relationships;
- statistical significance of the observed tumor increase;
- concurrent control tumor incidence as well as the historical control rate and variability for a specific neoplasm;
- survival-adjusted analyses and false positive or false negative concerns;
- structure-activity correlations; and
[…]

[1] = Route (rodents): Gavage, Second Route: Dosed Feed

Q: Which carcinogen call (Route (rodents): Gavage) does the source give for `CC(CCl)OC(C)CCl` (stereo not given) here?
A: active; no evidence

Q: How did the carcinogen call (Route (rodents): Gavage) turn out when `COc1c2occc2cc2ccc(=O)oc12` was run?
A: active; clear evidence

Q: How did the carcinogen call (Route (rodents): Dosed feed) turn out when `CC(=O)Nc1ccc(N=Nc2cc(C)ccc2O)cc1` was run?
A: active; clear evidence

Q: `C/C=C(/C)C(=O)O[C@H]1CCN2CC=C(COC(=O)[C@@](O)([C@@H](C)OC)C(C)(C)O)[C@H]12` was tested. Which carcinogen call (Route (rodents): Dosed feed) did it give?
A: active; clear evidence

Q: Which carcinogen call (Route (rodents): Dosed feed) does the source give for `ClC1=C(Cl)C2(Cl)C3C(Cl)C=CC3C1(Cl)C2(Cl)Cl` (stereo not given) here?
A: active; no evidence

Q: Which carcinogen call (Route (rodents): Dosed feed) does the source give for `COc1ccccc1[N+](=O)[O-]` here?
A: active; clear evidence

Q: `Nc1ccc(S(=O)(=O)c2ccc(N)cc2)cc1` was tested. Which carcinogen call (Route (rodents): Dosed feed) did it give?
A: active; clear evidence

Q: With `ClCc1cccnc1` as the molecule, how does the carcinogen call (Route (rodents): Gavage) read?
A: active; clear evidence

Q: `CCC1(c2ccccc2)C(=O)NCNC1=O` was tested. Which carcinogen call (Route (rodents): Dosed feed) did it give?
A: active; equivocal evidence

Q: `O=C1NC(=O)C(c2ccccc2)(c2ccccc2)N1` was tested. Which carcinogen call (Route (rodents): Dosed feed) did it give?
A: active; equivocal evidence

Q: How did the carcinogen call (Route (rodents): Interperitoneal) turn out when `CNNCc1ccc(C(=O)NC(C)C)cc1` was run?
A: active; clear evidence

Q: With `Clc1ccc(-c2cc(Cl)c(Cl)c(Cl)c2)cc1Cl` as the molecule, how does the carcinogen call (Route (rodents): Gavage) read?
A: active

Q: Which carcinogen call (Route (rodents): Gavage) does the source give for `ClC=CCCl` here?
A: active; clear evidence

Q: Which carcinogen call (Route (rodents): Dosed feed) does the source give for `CCn1cc(C(=O)O)c(=O)c2ccc(C)nc21` here?
A: active; clear evidence

Q: For `c1ccccc1`, which carcinogen call (Route (rodents): Gavage) is on record?
A: active; clear evidence

Q: How did the carcinogen call (Route (rodents): Dosed feed) turn out when `COc1ccc([N+](=O)[O-])cc1N` was run?
A: active; clear evidence

Q: For `Oc1cc(Cl)ccc1Oc1ccc(Cl)cc1Cl`, which carcinogen call (Route (rodents): Topical) is on record?
A: active

Q: For `NS(=O)(=O)c1cc(C(=O)O)c(NCc2ccco2)cc1Cl`, which carcinogen call (Route (rodents): Dosed feed) is on record?
A: active; equivocal evidence

Q: How did the carcinogen call (Route (rodents): Gavage) turn out when `O=C1CCc2ccccc2O1` was run?
A: active; some evidence

Q: Which carcinogen call (Route (rodents): Inhalation) does the source give for `CCc1ccccc1` here?
A: active; clear evidence

Q: `COC(=O)[C@H]1[C@H]2C[C@@H]3c4[nH]c5cc(OC)ccc5c4CCN3C[C@H]2C[C@@H](OC(=O)c2cc(OC)c(OC)c(OC)c2)[C@@H]1OC` was tested. Which carcinogen call (Route (rodents): Dosed feed) did it give?
A: active; clear evidence

Q: Which carcinogen call (Route (rodents): Inhalation) does the source give for `C=CCOCC1CO1` (stereo not given) here?
A: active; equivocal evidence

Q: `ClCCCl` was tested. Which carcinogen call (Route (rodents): Gavage) did it give?
A: active; clear evidence

Q: With `Nc1ccc(Cl)c(N)c1` as the molecule, how does the carcinogen call (Route (rodents): Dosed feed) read?
A: active; clear evidence

Q: `O=C(O)C(Cl)(Cl)Br` was tested. Which carcinogen call (Route (rodents): Dosed water) did it give?
A: active; clear evidence

Q: For `Clc1ccc(N=Nc2ccc(Cl)c(Cl)c2)cc1Cl`, which carcinogen call (Route (rodents): Gavage) is on record?
A: active; clear evidence

Q: Which carcinogen call (Route (rodents): Topical) does the source give for `CC1=CC(C)(C)Nc2ccccc21` here?
A: active; some evidence

Q: Which carcinogen call (Route (rodents): Inhalation) does the source give for `CC(O)COC(C)(C)C` (stereo not given) here?
A: active; equivocal evidence

Q: `CCOC(N)=O` was tested. Which carcinogen call (Route (rodents): Dosed water) did it give?
A: active

Q: Which carcinogen call (Route (rodents): Inhalation) does the source give for `CC(=O)CC(C)C` here?
A: active; some evidence

Q: For `Nc1cc(S(=O)(=O)O)cc2cc(S(=O)(=O)O)c(N=Nc3ccc(-c4ccc(N=Nc5c(S(=O)(=O)O)cc6cc(S(=O)(=O)O)cc(N)c6c5O)cc4)cc3)c(O)c12`, which carcinogen call (Route (rodents): Dosed feed) is on record?
A: active; clear evidence

Q: With `COc1ccccc1N` as the molecule, how does the carcinogen call (Route (rodents): Dosed feed) read?
A: active; clear evidence

Q: With `O=C1OC(c2ccc(O)cc2)(c2ccc(O)cc2)c2ccccc21` as the molecule, how does the carcinogen call (Route (rodents): Dosed feed) read?
A: active; clear evidence

Q: `CCNC(=S)NCC` was tested. Which carcinogen call (Route (rodents): Dosed feed) did it give?
A: active; clear evidence

Q: How did the carcinogen call [1] turn out when `COP(=O)(OC)OC=C(Cl)Cl` was run?
A: active; some evidence

Q: Which carcinogen call (Route (rodents): Topical) does the source give for `OCCNCCO` here?
A: active; no evidence

Q: With `CC(=O)OCc1ccccc1` as the molecule, how does the carcinogen call [1] read?
A: active; equivocal evidence

Q: With `C1CCOC1` as the molecule, how does the carcinogen call (Route (rodents): Inhalation) read?
A: active; some evidence

Q: With `CN(C)c1ccc(Cc2ccc(N(C)C)cc2)cc1` as the molecule, how does the carcinogen call (Route (rodents): Dosed feed) read?
A: active; clear evidence

Q: With `CC(CCl)OP(=O)(OC(C)CCl)OC(C)CCl` (stereo not given) as the molecule, how does the carcinogen call (Route (rodents): Dosed feed) read?
A: active; some evidence

Q: `[O]=[Sb][O][Sb]=[O]` was tested. Which carcinogen call (Route (rodents): Inhalation) did it give?
A: active; some evidence

Q: Which carcinogen call (Route (rodents): Dosed feed) does the source give for `O=c1c(O)c(-c2ccc(O)c(O)c2)oc2cc(O)cc(O)c12` here?
A: active; some evidence

Q: For `c1ccc2ccccc2c1`, which carcinogen call (Route (rodents): Inhalation) is on record?
A: active; clear evidence

Q: How did the carcinogen call (Route (rodents): Dosed water) turn out when `c1ccncc1` was run?
A: active; some evidence

Q: For `O=C/C=C/O`, which carcinogen call (Route (rodents): Gavage) is on record?
A: active; clear evidence

Q: For `C=CC(=C)Cl`, which carcinogen call (Route (rodents): Inhalation) is on record?
A: active; clear evidence

Q: For `CN(C)c1ccccc1`, which carcinogen call (Route (rodents): Gavage) is on record?
A: active; some evidence

Q: Which carcinogen call (Route (rodents): Gavage) does the source give for `CC=Cc1ccc(O)c(OC)c1` here?
A: active; equivocal evidence

Q: How did the carcinogen call (Route (rodents): Gavage) turn out when `c1ccoc1` was run?
A: active; clear evidence

Q: `C=C(C)c1ccccc1` was tested. Which carcinogen call (Route (rodents): Inhalation) did it give?
A: active; some evidence
